Values after ≈ are worked out from the molar mass of the structure shown.
Each compound was assayed on Mycobacterium tuberculosis (assay: Antimycobacterial activity against Mycobacterium tuberculosis H37Rv ATCC 27294 after 4 days by microplate Alamar blue assay). Conditions: H37Rv ATCC 27294, 96 h.
Type: functional
In the case of `O=C(O)/C=C/C(=O)c1ccc(Br)cc1`, the MIC was > 4 µg/mL. With `O=C(O)/C=C/C(=O)c1ccc(Cl)cc1Cl` the MIC was > 4 µg/mL. With `COC(=O)/C=C/C(=O)c1ccccc1` the MIC was 0.86 µg/mL (≈ 4.52 µM). `CCOC(=O)/C=C/C(=O)c1ccccc1` showed an MIC of 0.82 µg/mL (≈ 4.02 µM). Work on `CCOC(=O)/C=C/C(=O)c1ccc(OCC)cc1` yielded an MIC of 0.54 µg/mL (≈ 2.17 µM). `CC(C)(C)OC(=O)NCCOC(=O)/C=C/C(=O)c1ccc2c(c1)CCO2` was tested, and the MIC was > 4 µg/mL. With `CCOC(=O)/C=C/C(=O)c1cc(OC)ccc1OC` the MIC was 1.05 µg/mL (≈ 3.97 µM). With `COc1ccc(C(=O)/C=C/C(=O)N(C)C)cc1` the MIC was 0.38 µg/mL (≈ 1.63 µM). Work on `COC(=O)/C=C/C(=O)c1ccc2c(c1)CCO2` yielded an MIC of 0.84 µg/mL (≈ 3.62 µM). Compound `COC(=O)/C=C/C(=O)C1CCCCC1` has an MIC of 1.2 µg/mL (≈ 6.11 µM). `CC(C)(C)OC(=O)NCCOC(=O)/C=C/C(=O)c1ccc(-c2ccccc2)cc1` gave an MIC of 1.23 µg/mL (≈ 3.11 µM). `COC(=O)/C=C/C(=O)c1ccc(C)cc1` was tested, and the MIC was 0.37 µg/mL (≈ 1.81 µM). `COc1ccccc1C(=O)/C=C/C(=O)N(C)C` showed an MIC of 0.92 µg/mL (≈ 3.94 µM). For `CC(C)OC(=O)/C=C/C(=O)c1ccc2c(c1)CCO2`, the MIC was 1.02 µg/mL (≈ 3.92 µM). `COC(=O)/C=C/C(=O)c1ccc(-c2ccccc2)cc1` showed an MIC of 0.2 µg/mL (≈ 0.751 µM). For `COc1ccc(OC)c(C(=O)/C=C/C(=O)OCCNC(=O)OC(C)(C)C)c1`, the MIC was > 4 µg/mL. For `CC(C)OC(=O)/C=C/C(=O)c1ccc([N+](=O)[O-])cc1`, the MIC was 0.5 µg/mL (≈ 1.9 µM). Compound `COC(=O)/C=C/C(=O)c1cccc(OC)c1` has an MIC of 0.39 µg/mL (≈ 1.77 µM). For `Cc1ccc(C(=O)/C=C/C(=O)OC(C)C)cc1`, the MIC was 0.77 µg/mL (≈ 3.31 µM). Compound `CCOC(=O)/C=C/C(=O)c1ccc(OCc2ccccc2)cc1` has an MIC of 0.96 µg/mL (≈ 3.09 µM). For `CC(C)(C)OC(=O)NCCOC(=O)/C=C/C(=O)c1ccc([N+](=O)[O-])cc1`, the MIC was > 4 µg/mL. For `CCOC(=O)/C=C/C(=O)c1ccc(-c2ccccc2)cc1`, the MIC was 0.23 µg/mL (≈ 0.82 µM). `COC(=O)/C=C/C(=O)c1ccc(Oc2ccccc2)cc1` was tested, and the MIC was 0.87 µg/mL (≈ 3.08 µM). For `Cc1ccc(C(=O)/C=C/C(=O)OCCNC(=O)OC(C)(C)C)cc1`, the MIC was > 4 µg/mL. In the case of `CN(C)C(=O)/C=C/C(=O)c1ccccc1Cl`, the MIC was 0.84 µg/mL (≈ 3.53 µM). `CC(C)(C)OC(=O)NCCOC(=O)/C=C/C(=O)c1ccc2c(c1)OCO2` was tested, and the MIC was > 4 µg/mL. `COC(=O)/C=C/C(=O)c1cc(OC)ccc1OC` was tested, and the MIC was 0.88 µg/mL (≈ 3.52 µM). In the case of `CC(C)(C)OC(=O)NCCOC(=O)/C=C/C(=O)c1ccc(OCc2ccccc2)cc1`, the MIC was 1.91 µg/mL (≈ 4.49 µM). With `COC(=O)/C=C/C(=O)C1CC1` the MIC was > 4 µg/mL. `CCOC(=O)/C=C/C(=O)c1cccc2ccccc12` was tested, and the MIC was 0.61 µg/mL (≈ 2.4 µM). Compound `COc1ccccc1C(=O)/C=C/C(=O)OC(C)C` has an MIC of 1.91 µg/mL (≈ 7.69 µM). With `COC(=O)/C=C/C(=O)c1cccc2ccccc12` the MIC was 0.45 µg/mL (≈ 1.87 µM). With `CC(C)(C)OC(=O)NCCOC(=O)/C=C/C(=O)C1CCCCC1` the MIC was > 4 µg/mL. In the case of `COC(=O)/C=C/C(=O)c1ccc(OCc2ccccc2)cc1`, the MIC was 0.67 µg/mL (≈ 2.26 µM). `CCOC(=O)/C=C/C(=O)c1ccc([N+](=O)[O-])cc1` gave an MIC of 0.48 µg/mL (≈ 1.93 µM). `CC(C)OC(=O)/C=C/C(=O)c1ccccc1` showed an MIC of 0.78 µg/mL (≈ 3.57 µM). `CCOC(=O)/C=C/C(=O)c1cccc(OC)c1` showed an MIC of 0.82 µg/mL (≈ 3.5 µM). `CCOC(=O)/C=C/C(=O)c1ccc(OC)c(OC)c1` gave an MIC of 0.82 µg/mL (≈ 3.1 µM). For `O=C(O)/C=C/C(=O)c1ccc([N+](=O)[O-])cc1`, the MIC was > 4 µg/mL. `CC(C)OC(=O)/C=C/C(=O)c1ccc2c(c1)OCO2` was tested, and the MIC was 0.87 µg/mL (≈ 3.32 µM). With `COc1ccc(OC)c(C(=O)/C=C/C(=O)OC(C)C)c1` the MIC was 1.48 µg/mL (≈ 5.32 µM). `CCOC(=O)/C=C/C(=O)c1ccccc1OC` gave an MIC of 1.82 µg/mL (≈ 7.77 µM). In the case of `CC(C)OC(=O)/C=C/C(=O)c1ccc(-c2ccccc2)cc1`, the MIC was 0.24 µg/mL (≈ 0.815 µM). For `O=C(O)/C=C/C(=O)C1CC1`, the MIC was > 4 µg/mL. `COc1cccc(C(=O)/C=C/C(=O)OC(C)C)c1` was tested, and the MIC was 0.92 µg/mL (≈ 3.71 µM). Work on `COC(=O)/C=C/C(=O)c1ccccc1OC` yielded an MIC of 0.99 µg/mL (≈ 4.5 µM). `COC(=O)/C=C/C(=O)c1ccc(OC)c(OC)c1` gave an MIC of 0.44 µg/mL (≈ 1.76 µM). For `COC(=O)/C=C/C(=O)c1ccc(Br)cc1`, the MIC was 0.49 µg/mL (≈ 1.82 µM). For `CCOC(=O)/C=C/C(=O)c1ccc(Br)cc1`, the MIC was 0.52 µg/mL (≈ 1.84 µM). In the case of `CCOC(=O)/C=C/C(=O)C1CCCCC1`, the MIC was > 4 µg/mL. In the case of `CC(C)OC(=O)/C=C/C(=O)c1ccc(OCc2ccccc2)cc1`, the MIC was 1.14 µg/mL (≈ 3.51 µM). With `CC(C)(C)OC(=O)NCCOC(=O)/C=C/C(=O)c1ccc(Oc2ccccc2)cc1` the MIC was > 4 µg/mL. In the case of `CC(C)(C)OC(=O)NCCOC(=O)/C=C/C(=O)c1ccc(Br)cc1`, the MIC was > 4 µg/mL. In the case of `CCOC(=O)/C=C/C(=O)c1ccc2c(c1)OCO2`, the MIC was 0.49 µg/mL (≈ 1.97 µM). For `COc1ccc(C(=O)/C=C/C(=O)OC(C)C)cc1`, the MIC was 1.64 µg/mL (≈ 6.61 µM). `CCOc1ccc(C(=O)/C=C/C(=O)OC)cc1` showed an MIC of 0.41 µg/mL (≈ 1.75 µM). Compound `CC(C)OC(=O)/C=C/C(=O)c1ccc(Br)cc1` has an MIC of 0.41 µg/mL (≈ 1.38 µM). In the case of `COc1ccc(C(=O)/C=C/C(=O)OCCNC(=O)OC(C)(C)C)cc1`, the MIC was > 4 µg/mL. Compound `CCOC(=O)/C=C/C(=O)c1ccc(OC)cc1` has an MIC of 0.46 µg/mL (≈ 1.96 µM). In the case of `COc1ccc(C(=O)/C=C/C(=O)OCCNC(=O)OC(C)(C)C)cc1OC`, the MIC was > 4 µg/mL. `O=C(O)/C=C/C(=O)c1ccc(OCc2ccccc2)cc1` was tested, and the MIC was > 4 µg/mL. With `CC(=O)/C=C/C(=O)O` the MIC was > 4 µg/mL. `CC(C)OC(=O)/C=C/C(=O)C1CC1` showed an MIC of 0.68 µg/mL (≈ 3.73 µM). `O=C(O)/C=C/C(=O)C1CCCCC1` was tested, and the MIC was > 4 µg/mL. With `CC(=O)/C=C/C(=O)OC(C)C` the MIC was 2.5 µg/mL (≈ 16 µM). In the case of `COc1cccc(C(=O)/C=C/C(=O)N(C)C)c1`, the MIC was 1.62 µg/mL (≈ 6.94 µM). `CCOC(=O)/C=C/C(=O)c1ccc2c(c1)CCO2` gave an MIC of 0.94 µg/mL (≈ 3.82 µM). For `CC(=O)/C=C/C(=O)OCCNC(=O)OC(C)(C)C`, the MIC was > 4 µg/mL. With `CCOC(=O)/C=C/C(=O)C1CC1` the MIC was > 4 µg/mL. Work on `CN(C)C(=O)/C=C/C(=O)c1cccc(Br)c1` yielded an MIC of 0.96 µg/mL (≈ 3.4 µM). `CCOc1ccc(C(=O)/C=C/C(=O)OC(C)C)cc1` gave an MIC of 0.47 µg/mL (≈ 1.79 µM). `CCOC(=O)/C=C/C(=O)c1ccc(C)cc1` was tested, and the MIC was > 4 µg/mL. `CC(C)(C)OC(=O)NCCOC(=O)/C=C/C(=O)C1CC1` was tested, and the MIC was 1.45 µg/mL (≈ 5.12 µM). For `COc1ccc(C(=O)/C=C/C(=O)OC(C)C)cc1OC`, the MIC was 1.94 µg/mL (≈ 6.97 µM). `CCOC(=O)/C=C/C(C)=O` showed an MIC of 3.51 µg/mL (≈ 24.7 µM). Work on `CC(C)OC(=O)/C=C/C(=O)c1cccc2ccccc12` yielded an MIC of 0.69 µg/mL (≈ 2.57 µM). For `O=C(O)/C=C/C(=O)c1ccc(Oc2ccccc2)cc1`, the MIC was > 4 µg/mL. For `CC(C)(C)OC(=O)NCCOC(=O)/C=C/C(=O)c1cccc2ccccc12`, the MIC was > 4 µg/mL. `COC(=O)/C=C/C(C)=O` gave an MIC of 0.86 µg/mL (≈ 6.71 µM). With `CCOC(=O)/C=C/C(=O)c1ccco1` the MIC was 1.09 µg/mL (≈ 5.61 µM). Compound `CC(C)OC(=O)/C=C/C(=O)c1ccc(Cl)cc1Cl` has an MIC of 1.01 µg/mL (≈ 3.52 µM). With `COc1ccccc1C(=O)/C=C/C(=O)OCCNC(=O)OC(C)(C)C` the MIC was > 4 µg/mL. `CCOC(=O)/C=C/C(=O)c1ccc(Oc2ccccc2)cc1` showed an MIC of 1.52 µg/mL (≈ 5.13 µM). `CCOC(=O)/C=C/C(=O)c1ccc(Cl)cc1Cl` gave an MIC of 1.09 µg/mL (≈ 3.99 µM). `CCOc1ccc(C(=O)/C=C/C(=O)OCCNC(=O)OC(C)(C)C)cc1` was tested, and the MIC was 1.45 µg/mL (≈ 3.99 µM). Compound `COC(=O)/C=C/C(=O)c1ccco1` has an MIC of 0.52 µg/mL (≈ 2.89 µM). `O=C(O)/C=C/C(=O)c1ccco1` was tested, and the MIC was > 4 µg/mL. With `COC(=O)/C=C/C(=O)c1ccc2c(c1)OCO2` the MIC was 0.38 µg/mL (≈ 1.62 µM). In the case of `O=C(O)/C=C/C(=O)c1cccc2ccccc12`, the MIC was > 4 µg/mL. `CC(C)(C)OC(=O)NCCOC(=O)/C=C/C(=O)c1ccco1` was tested, and the MIC was > 4 µg/mL. With `CC(C)OC(=O)/C=C/C(=O)c1ccc(Oc2ccccc2)cc1` the MIC was 1.69 µg/mL (≈ 5.45 µM). For `CC(C)(C)OC(=O)NCCOC(=O)/C=C/C(=O)c1ccccc1`, the MIC was > 4 µg/mL. `CC(C)OC(=O)/C=C/C(=O)c1ccco1` was tested, and the MIC was 0.65 µg/mL (≈ 3.12 µM). `COC(=O)/C=C/C(=O)c1ccc(Cl)cc1Cl` showed an MIC of 1.85 µg/mL (≈ 7.14 µM). For `COc1cccc(C(=O)/C=C/C(=O)OCCNC(=O)OC(C)(C)C)c1`, the MIC was > 4 µg/mL. In the case of `CC(C)OC(=O)/C=C/C(=O)C1CCCCC1`, the MIC was > 4 µg/mL. In the case of `CC(C)(C)OC(=O)NCCOC(=O)/C=C/C(=O)c1ccc(Cl)cc1Cl`, the MIC was > 4 µg/mL. `COC(=O)/C=C/C(=O)c1ccc([N+](=O)[O-])cc1` gave an MIC of 0.54 µg/mL (≈ 2.3 µM).
